Compound	melting point
C#CCCCOC(=O)NC(=O)C(c1ccccc1)c1ccccc1	109 °C
O=C(c1ccccn1)c1nsc2nccn12	147 to 148 °C
O=C(O)C(Br)CCCCCc1ccc(Cl)cc1 (stereo not given)	77 to 79 °C
COc1cc(CN2CCc3cc(OCc4ccccc4)c(OC)cc3C2)cc(OC)c1	95 to 96 °C
COc1c(Cl)nc(SC)nc1NN	118 to 119 °C
CCOC(=O)c1cn(-c2nonc2C)c2cc(F)c(F)c(C)c2c1=O	174 °C
COC(=O)CCc1c(CCO)ccc2c1CCC(NS(=O)(=O)c1ccc(Cl)cc1)C2 (stereo not given)	132 °C
Cc1nc2ccc(CN(CCO)c3ccc(C(=O)NCc4cccc([N+](=O)[O-])c4)cc3)cc2c(=O)[nH]1	230 to 232 °C
COc1cc(C(F)(F)F)cc(Cl)c1-n1nc(C#N)c(S(=O)C(F)(F)F)c1N (stereo not given)	195 °C
Cc1nc(-n2cnn(Cc3ccc(F)cc3)c2=O)sc1C(N)=O	232 to 233 °C
CC(C)(C)c1cc(-c2nn(CC3CC3)c3ncccc23)cc(C(C)(C)C)c1O	135 to 137 °C
FC(F)(F)c1ccc(-c2ccnc(Nc3ccccc3)n2)cc1	162 to 163 °C
CSC(Oc1cc2cc(Br)cnc2cc1F)C(=O)NC(C)(C)C (stereo not given)	144 to 145 °C
O=C1c2cccc3cccc(c23)C(=O)N1CCI	222 to 224 °C
CC(=O)N1c2ccccc2-n2cnc(-c3nc(C4CC4)no3)c2C1(C)C	169 to 171 °C
O=C1c2ccc(Br)cc2C(=O)c2ccc(Br)cc21	> 280 °C
O=c1ccc(S(=O)(=O)c2oc3ccc(Cl)cc3c2O)n[nH]1	> 240 °C
Cc1cccc2nc(NC(=O)c3ccc(C(C)(C)CCC(=O)O)cc3)cn12	260 °C
NS(=O)(=O)c1ccc(-c2cc3cccccc-3c2-c2ccccc2)cc1	169 to 170 °C
CCOC(=O)Cn1c(=O)c(=O)[nH]c2cc(C(F)(F)F)c(-n3ccc(C=NOCc4ccccc4)c3)cc21	142 to 147 °C

Compound	melting point
NS(=O)(=O)c1ccc(S(=O)(=O)N2CCC(=O)CC2)cc1	194 to 195 °C
O=S(=O)(Nc1ccccc1/C=C/c1ccncc1)c1ccc(OC(F)(F)F)cc1	151 to 153 °C
CCOC(CSc1ccc2c(c1)CCN2C(C)=O)OCC	< 52 °C
N#Cc1cc(Cl)cc(CO)c1	110 to 111 °C
CC(C)C(=O)NCc1cccc2c1C(=O)N(C1CCC(=O)NC1=O)C2=O (stereo not given)	218 to 220 °C
Cc1cc(CCCCCOc2c(Cl)cc(-c3ccco3)cc2Cl)on1	29 to 30 °C
COc1ccc2[nH]cc(C=C3SC(=S)N(CC(=O)O)C3=O)c2c1	266 °C
CC(C)(CCc1cc2cc(Cl)ccc2n1S(=O)(=O)c1ccc2ncsc2c1)C(=O)O	151 °C
Nc1ccc(OCCCCCOc2ccc(N)cc2)cc1	78 to 79 °C
CC(C)c1ccc2c(c1)c(-c1ccccc1Cl)c(C(=O)O)c(=O)n2C	184 to 185 °C
O=C1N=NC(=O)c2c1[nH]c1cc(Br)ccc21	260 °C
CCOc1cc(C)ccc1C1CCN(CCCCNC(=O)c2ccc3c(c2)cc(-c2ccc(Cl)cc2)n3C)CC1	174 to 175 °C
Cc1ccc(-c2cc(NC(=O)C3Cc4ccccc4C3)n[nH]2)cc1	220 to 225 °C
CCOC(=O)CCNc1ncccc1NC(=O)c1ccccc1Cl	90 to 92 °C
C[C@@H]1C(=O)C[C@H]2C[C@@H]1OO[C@@]2(C)/C=C\c1ccc(Cl)cc1	90 °C
CC(C)=CCOc1ccc2c(C)cc(=O)oc2c1C(=O)C=Cc1cccnc1	156 to 157 °C
CC(C)(O)Cn1c(CO)nc2c(N)nc3cc(-c4cccc(C(=O)N5CCOCC5)c4)cnc3c21	153 to 155 °C
COC(=O)c1ccc2sc3ccccc3c2c1	127 to 129 °C
O=c1cc(S)sc2ccoc12	> 245 °C
O=C(c1ccccc1)N1CCc2c(c(=O)[nH]c3ccccc23)C1	275 to 277 °C

Source: a melting point compilation (Tetko et al.; mined from patent text by program, amines drawn as free bases though some values may be those of a salt)
